In paper PMC2783949 (Bioorganic & medicinal chemistry, 2009):
Entries after “also recorded” stand apart in the source; their conditions may differ.

Key:
[1] = system: solid tumors; conditions: mice; cited from earlier work
[2] = system: murine leukemias; conditions: cited from earlier work
[3] = Oxidation of H-phosphinate 2 into PALA, 31P-NMR monitoring; assay type: physicochemical; conditions: neutralized compound, over a period of two weeks
[4] = target: catalytic subunit of E. coli ATCase (Escherichia coli, UniProt P0A786); conditions: for Inhibition Constant (Ki): pH 8.3; for mode of inhibition: relative to carbamyl phosphate
Sequence of catalytic subunit of E. coli ATCase (P0A786 2-311): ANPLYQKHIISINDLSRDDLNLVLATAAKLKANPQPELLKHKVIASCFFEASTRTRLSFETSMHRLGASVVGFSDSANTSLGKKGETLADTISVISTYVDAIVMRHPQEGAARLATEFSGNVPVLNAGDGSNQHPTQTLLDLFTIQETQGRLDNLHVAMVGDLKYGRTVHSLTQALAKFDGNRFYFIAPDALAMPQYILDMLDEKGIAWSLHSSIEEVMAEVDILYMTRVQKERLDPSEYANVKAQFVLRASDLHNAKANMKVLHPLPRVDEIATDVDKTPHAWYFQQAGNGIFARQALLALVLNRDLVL

**Q.** With `O=C(O)C[C@H](NC(=O)CP(=O)(O)O)C(=O)O` [Compound 1, N-phosphonacetyl-L-aspartate] as the molecule, how does the “effect on solid tumors” value [1] read?
**A.** eradicated solid tumors in mice

**Q.** What about the “effect on murine leukemias” value [2] of the same molecule?
**A.** murine leukemias were resistant

**Q.** With `O=C(O)C[C@H](NC(=O)C[PH](=O)O)C(=O)O` [Compound 2] as the molecule, how does the “oxidation of 2 into PALA” value [3] read?
**A.** could not be detected

**Q.** And the “inhibition of ATCase (in words)” value [4]?
**A.** good inhibitor; also recorded: submicromolar inhibitors

**Q.** For `O=C(O)C[C@H](NC(=O)C[PH](=O)CO)C(=O)O` (some centres unmarked) [Compound 3], which “inhibition of ATCase (in words)” value [4] is on record?
**A.** submicromolar inhibitors

**Q.** With `O=C(O)C[C@@H](C(=O)O)N1CCP(=O)(O)CC1` [Compound 14] as the molecule, how does the “inhibition of ATCase (in words)” value [4] read?
**A.** totally inactive

**Q.** What about the “Inhibition Constant (Ki)” value [4] of the same molecule?
**A.** inactive

**Q.** With `O=C(O)C[C@@H](C(=O)O)N1CP(=O)(O)CC1=O` [Compound 19, 2-(3-Hydroxy-3,5-dioxo-3l5-[1,3]azaphospholidin-1-yl)-succinic acid] as the molecule, how does the “inhibition of ATCase (in words)” value [4] read?
**A.** inactive

**Q.** What about the “Inhibition Constant (Ki)” value [4] of the same molecule?
**A.** inactive

**Q.** Which results are given for `O=C(O)C[C@H](NC(=O)CP(=O)(O)CCO)C(=O)O` [Compound 22]?
**A.** inhibition of ATCase (in words) [4]: significant inhibitory activity; mode of inhibition [4]: uncompetitive

**Q.** Which mode of inhibition [4] does the source give for `O=C(O)C[C@H](NC(=O)CP(=O)(O)CC(=O)O)C(=O)O` [Compound 24] here?
**A.** competitive inhibitor

**Q.** Which “inhibition of ATCase (in words)” value [4] does the source give for `O=C(O)C[C@@H](C(=O)O)N1CCP(=O)(O)CC1=O` [Compound 27, 2-(4-Hydroxy-2,4-dioxo-4λ[5]-[1,4]azaphosphinan-1-yl)-succinic acid] here?
**A.** significant inhibition; also recorded: micromolar-level inhibitor

**Q.** What about the “Km(CP)/Ki” value ([4]; Km of carbamyl phosphate over Ki of inhibitor) of the same molecule?
**A.** 28

**Q.** What does the source list for `O=C(O)C[C@H](NC(=O)OCP(=O)(O)O)C(=O)O` [Compound 32, 2-Phosphonomethyl-oxycarbonylamino-succinic acid]?
**A.** inhibition of ATCase (in words) [4]: does not inhibit ATCase at all; Inhibition Constant (Ki) [4]: inactive

**Q.** Which “inhibition of ATCase (in words)” value [4] does the source give for `O=C(O)C[C@H](NC(=O)CC(C(=O)O)C(=O)O)C(=O)O` [Compound 38] here?
**A.** none of the carboxylates 38, 40, and 42 displayed any significant inhibition

**Q.** With `O=C(O)CC(=O)N[C@@H](CC(=O)O)C(=O)O` [Compound 40] as the molecule, how does the “inhibition of ATCase (in words)” value [4] read?
**A.** none of the carboxylates 38, 40, and 42 displayed any significant inhibition; also recorded: inactive

**Q.** With `O=C(O)CCC(=O)N[C@@H](CC(=O)O)C(=O)O` [Compound 42] as the molecule, how does the “inhibition of ATCase (in words)” value [4] read?
**A.** none of the carboxylates 38, 40, and 42 displayed any significant inhibition

**Q.** Which Km ([4]; substrate of ATCase) does the source give for `NC(=O)OP(=O)(O)O` [carbamyl phosphate] here?
**A.** 28 µM
